{"source": "patent US4659730A", "about": "“Aromatase inhibiting imidazole derivatives” (Eli Lilly and Company, priority 1984, dated 1987)", "key": {"breast cancer": {"test_system": "breast cancer", "conditions": "known aromatase inhibitors; Cancer Research, Vol. 42, Suppl. 8:3261s (1982); cited from earlier work"}, "aromatase": {"target": "T1, aromatase (Rattus norvegicus, UniProt P22443)", "T1 sequence (P22443 1-508)": "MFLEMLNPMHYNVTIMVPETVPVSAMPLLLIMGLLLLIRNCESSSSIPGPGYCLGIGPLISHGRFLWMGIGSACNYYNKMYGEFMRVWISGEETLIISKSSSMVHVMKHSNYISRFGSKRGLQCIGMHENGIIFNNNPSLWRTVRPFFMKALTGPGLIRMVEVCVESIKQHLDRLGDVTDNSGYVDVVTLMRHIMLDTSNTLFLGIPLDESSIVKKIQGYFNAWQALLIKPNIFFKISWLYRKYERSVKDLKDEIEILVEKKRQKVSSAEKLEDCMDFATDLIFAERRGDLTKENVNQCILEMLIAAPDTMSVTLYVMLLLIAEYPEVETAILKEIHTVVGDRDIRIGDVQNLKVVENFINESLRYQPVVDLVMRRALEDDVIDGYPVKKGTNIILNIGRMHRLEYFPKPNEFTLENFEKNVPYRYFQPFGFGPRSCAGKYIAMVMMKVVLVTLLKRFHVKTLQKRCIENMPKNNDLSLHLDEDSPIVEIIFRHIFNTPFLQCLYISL", "test": "biochemical"}, "[1]": {"test_system": "aromatization (estrogen synthesis)", "test": "Estrogen synthesis inhibition in rats (uterine weight and ovarian steroid levels)", "format": "in vivo, rat (immature female Wistar)", "conditions": "7 days; for Mean Uterine Weight: testosterone propionate-treated rats; for Mean Steroid Concentration, estrone / Mean Steroid Concentration, estriol / Mean Steroid Concentration, estradiol: ovaries; for Mean Steroid Concentration, estrone: testosterone-treated control 0.19; for Mean Steroid Concentration, estriol: testosterone-treated control 0.53; for Mean Steroid Concentration, estradiol: testosterone-treated control 0.55"}, "[2]": {"conditions": "rat ovarian microsomes, substrate (androstenedione) concentration 0.1 μM"}, "[3]": {"conditions": "30 ppm in feed (approx. 3 mg/kg/day)"}, "[4]": {"conditions": "300 ppm in feed (approx. 30 mg/kg/day)"}}, "note": "Where a name gives a salt, the structure may show the parent alone. Read-outs that look alike come from different tables or passages of the source.", "data": [{"smiles": "CCC1(c2ccc(N)cc2)CCC(=O)NC1=O", "note": "(stereo not drawn) [aminoglutethimide]", "values": [{"measurement": "effect in treatment of breast cancer", "setting": "breast cancer", "value": "beneficial effect in treatment of breast cancer"}]}, {"smiles": "Clc1cc2c(cc1Cl)C(n1ccnc1)CC2.O=[N+]([O-])O", "note": "(stereo not drawn) [nitrate]", "values": [{"measurement": "EC50", "setting": "aromatase", "value": 78, "unit": "nM"}]}, {"smiles": "COc1ccc2c(c1)C(n1ccnc1)CCC2", "note": "(stereo not drawn) [nitrate]", "values": [{"measurement": "EC50", "setting": "aromatase", "value": 450, "unit": "nM"}]}, {"smiles": "COc1ccc(OC)c2c1CCC2n1ccnc1", "note": "(stereo not drawn) [nitrate]", "values": [{"measurement": "EC50", "setting": "aromatase", "value": 870, "unit": "nM"}]}, {"smiles": "Clc1cccc2c1CCC2n1ccnc1", "note": "(stereo not drawn) [1-(4-chloro-2,3-dihydro-1H--inden-1-yl)-1H--imidazole nitrate]", "values": [{"measurement": "EC50", "setting": "aromatase; [2]", "value": 680, "unit": "nM"}]}, {"smiles": "COc1cccc2c1CCCC2n1ccnc1", "note": "(stereo not drawn) [nitrate]", "values": [{"measurement": "EC50", "setting": "aromatase", "value": 250, "unit": "nM"}]}, {"smiles": "c1ccc2c(c1)SCCC2n1ccnc1", "note": "(stereo not drawn) [nitrate]", "values": [{"measurement": "EC50", "setting": "aromatase", "value": 1020, "unit": "nM"}]}, {"smiles": "C[C@]12C=CC(=O)C=C1CC[C@@H]1[C@@H]2CC[C@]2(C)OC(=O)CC[C@@H]12", "note": "[testolactone]", "values": [{"measurement": "effect in treatment of breast cancer", "setting": "breast cancer", "value": "beneficial effect in treatment of breast cancer"}]}, {"smiles": "Clc1ccc2c(c1)C(n1ccnc1)CCC2", "note": "(stereo not drawn) [1-(7-chloro-1,2,3,4-tetrahydro-1-naphthalenyl)-1H--imidazole nitrate]", "values": [{"measurement": "EC50", "setting": "aromatase; [2]", "value": 100, "unit": "nM"}]}, {"smiles": "c1ccc2c(c1)CCC2n1ccnc1", "note": "(stereo not drawn) [nitrate]", "values": [{"measurement": "EC50", "setting": "aromatase", "value": 810, "unit": "nM"}]}, {"smiles": "c1ccc2c(c1)OCCC2n1ccnc1", "note": "(stereo not drawn) [1-(3,4-dihydro-2H-1-benzopyran-4-yl)-1H-imidazole hydrochloride]", "values": [{"measurement": "EC50", "setting": "aromatase; [2]", "value": 2800, "unit": "nM"}]}, {"smiles": "Clc1cc2c(cc1Cl)C(n1ccnc1)CC2.O=[N+]([O-])O", "note": "(stereo not drawn)", "values": [{"measurement": "Mean Uterine Weight", "setting": "[1]; 30 ppm in feed (approx. 3 mg/kg/day), 4 animals, testosterone-treated control 140.8", "value": 152.5, "unit": "mg"}, {"measurement": "Mean Uterine Weight", "setting": "[1]; 300 ppm in feed (approx. 30 mg/kg/day), 5 animals, significantly different from testosterone-treated control (140.8), p < 0.05", "value": 103.2, "unit": "mg"}, {"measurement": "Mean Steroid Concentration, estrone", "setting": "[1]; [3]", "value": "0.21 femtomoles per milligram of protein"}, {"measurement": "Mean Steroid Concentration, estriol", "setting": "[1]; [3]", "value": "0.46 femtomoles per milligram of protein"}, {"measurement": "Mean Steroid Concentration, estradiol", "setting": "[1]; [3]", "value": "0.71 femtomoles per milligram of protein"}, {"measurement": "Mean Steroid Concentration, estrone", "setting": "[1]; [4]", "value": "0.17 femtomoles per milligram of protein"}, {"measurement": "Mean Steroid Concentration, estriol", "setting": "[1]; [4]", "value": "0.49 femtomoles per milligram of protein"}, {"measurement": "Mean Steroid Concentration, estradiol", "setting": "[1]; [4]", "value": "0.35 femtomoles per milligram of protein"}]}, {"smiles": "Clc1cc(Cl)c2c(c1)C(n1ccnc1)CC2", "note": "(stereo not drawn) [nitrate]", "values": [{"measurement": "EC50", "setting": "aromatase", "value": 115, "unit": "nM"}]}, {"smiles": "c1ccc2c(c1)CCCC2n1ccnc1", "note": "(stereo not drawn) [nitrate]", "values": [{"measurement": "EC50", "setting": "aromatase", "value": 520, "unit": "nM"}]}]}
